Test results from US10568884B2, “Compounds and compositions as protein kinase inhibitors” (Array BioPharma, Inc., priority 2009, dated 2020).
Read-outs that look alike come from different tables or passages of the source.

Key:
[1] = system: A375 melanoma cell line (B-Raf V600E); test: A375 Cellular Proliferation Assay (A375 CP); format: cell-based; conditions: Homo sapiens
Method: A375-luc cells engineered to express luciferase are plated to 384-well white clear bottom plates as 1,500 cells/50 μl/well in DMEM containing 10% FBS. Compounds of the invention dissolved in 100% DMSO at appropriate concentrations are transferred to the cells by a robotic Pin Tool (100 nl). The cells are incubated for 2 days at […], then 25 μl of BrightGlo™ is added to each well and the plates are read by luminescence.

p38α MAP Kinase = test: A549 p38α MAP Kinase Bright-Glo Reporter Gene Assay; format: cell-based; conditions: Homo sapiens, IL-1 beta stimulated, IL-8 promoter luciferase reporter, read-out: A549 p38 RGA IC50
Method: A549 cells were stably-transfected with the IL-8 promoter driven reporter, pGL3-IL8-Luc. The cells were plated at 4×10^5/ml into 384-well solid white plates (40 ul/well, 5% CD-FBS, 1×P/S, DMEM) and were incubated overnight (18-20 hours) at 37° C. Test compounds were serially diluted in DMSO, then 50 nl of test solution was added to the incubation (final DMSO concentration of 0.1%). After incubating with test compound for 30 min, cells were stimulated with 1 ng/ml IL-1 beta (10 ul of 5 ng/ml solution per well). Bright-Glo (25 ul/well) was added to measure luciferase expression after 7-8 hours of stimulation.

[2] = Liver Microsomal Clearance Assay (human); format: in vitro ADME; conditions: extraction ratio, human liver microsomes, 1 μM compound
Method: (§1) The in vitro microsomal clearance assay is designed to assess potential risks associated with hepatic metabolic stability of compounds. The test compound (1 μM) was incubated with liver microsomes (0.5 mg/mL) from different species (mouse, rat, monkey, dog and human) and NADPH (1 mM) in 100 mM potassium phosphate buffer at 37° C. At specific reaction time points (0, 5, 10 and 30 minutes), reaction aliquots were removed and reactions were terminated by addition of ice cold acetonitrile containing mass spectrometry internal standard. The samples were centrifuged and the supernatants were analyzed by LC-MS/MS. In vitro metabolic half-life (t1/2, min) and intrinsic clearance (CLint, μL/min/mg) are based on the rate and extent of metabolism of the test compound as determined by the disappearance of the parent compound from the reaction mixture. These values may be scaled to predict hepatic metabolic clearance rate (CLh, mL/min/kg) and extraction ratio (ER, expressed as a ratio of the predicted hepatic metabolic clearance to hepatic blood flow in that species). In general, compounds with high predictedCLint or ER in vitro are considered to be at high risk for exposure-limiting metabolism in vivo.

[3] = Liver Microsomal Clearance Assay (mouse); format: in vitro ADME; conditions: extraction ratio, mouse liver microsomes, 1 μM compound
Method: as §1

SW620 cells = test: SW620 Cell Viability Assay (Cell Titer Glo); format: cell-based; conditions: 10 to 0.002 μM, no MEK inhibitor
Method: The present invention also includes combinations of the BRaf inhibitors disclosed in this invention with other agents. In particular, the present invention provides for combinations with MEK1/2 inhibitors. FIG. 1 illustrates that the addition of a MEK small molecule inhibitor can reverse the induced ERK signaling, cell growth and transformation caused by a Raf small molecule inhibitor.
SW620 cells were seeded in 1640 RPMI+10% FBS at a density of 1500 cells per 96-well in black walled, clear bottom tissue culture treated plates. Test compounds were serially diluted in DMSO then added to the cells (final DMSO concentration of 0.1%) and incubated at 37° C. and 5% CO2 for 4 days. To measure cell viability, cell plates were brought to room temperature, culture media was removed, and 200 μl of Cell Titer-Glo reagent (Promega, kit components mixed as per the manufacturer's protocol then diluted 1:2 with growth media) was added to each well. Plates were shaken for 5 minutes, then incubated at room temperature for 5 minutes, and the luminescence was measured (Trilux, Perkin Elmer).

[4] = A-375, 48 h, A375-luc cells, 2 days, read-out: A375 CP IC50
[5] = A-375, as repeated in p38 table, read-out: A375 CP IC50

| SMILES | IC50 [1, 4] [nM] | IC50 [1, 5] [nM] | IC50 ([1]; A-375, read-out: A375 IC50) [nM] | IC50 (p38α MAP Kinase) [nM] | ER Human [2] | ER Mouse [3] | effect on cellular proliferation (negative inhibition in FIG. 1) (SW620 cells) |
| --- | --- | --- | --- | --- | --- | --- | --- |
| CNc1nccc(-c2cn(C(C)C)nc2-c2cc(Cl)cc(NS(C)(=O)=O)c2F)n1 [Compound 29, N-(5-chloro-2-fluoro-3-{4-[2-(methylamino)pyrimidin-4-yl]-1-(propan-2-yl)-1H-pyrazol-3-yl}phenyl)methanesulfonamide] | 76 | 76 | 76 | 17000 |  |  |  |
| COC(=O)N[C@@H](C)CNc1nccc(-c2cn(C(C)C)nc2-c2cc(Cl)cc(NS(C)(=O)=O)c2F)n1 [Compound 9, Methyl N-[(2S)-1-({4-[3-(5-chloro-2-fluoro-3-methanesulfonamidophenyl)-1-(propan-2-yl)-1H-pyrazol-4-yl]pyrimidin-2-yl}amino)propan-2-yl]carbamate] | 2 | 2 | 2 | 2200 | <0.21 | 0.48 | induction in cellular proliferation |
| COC(=O)NC[C@H](C)Nc1nccc(-c2cn(C(C)C)nc2-c2cc(Cl)cc(NS(C)(=O)=O)c2F)n1 [Compound 32, Methyl N-[(2S)-2-({4-[3-(5-chloro-2-fluoro-3-methanesulfonamidophenyl)-1-(propan-2-yl)-1H-pyrazol-4-yl]pyrimidin-2-yl}amino)propyl]carbamate] | 31 | 31 |  | 690 |  |  |  |
| CCCS(=O)(=O)Nc1cccc(-c2nn(C(C)C)cc2-c2ccnc(NC[C@H](C)NC(=O)OC)n2)c1F [Compound 3, methyl N-[(2S)-1-[(4-{3-[2-fluoro-3-(propane-1-sulfonamido)phenyl]-1-(propan-2-yl)-1H-pyrazol-4-yl}pyrimidin-2-yl)amino]propan-2-yl]carbamate] | 2 |  |  |  | 0.69 | 0.85 |  |
| CCCS(=O)(=O)Nc1ccc(F)c(-c2nn(C(C)C)cc2-c2ccnc(NC[C@H](C)NC(=O)OC)n2)c1F [Compound 7, Methyl N-[(2S)-1-[(4-{3-[2,6-difluoro-3-(propane-1-sulfonamido)phenyl]-1-(propan-2-yl)-1H-pyrazol-4-yl}pyrimidin-2-yl)amino]propan-2-yl]carbamate] | 8 |  |  |  | 0.65 | 0.91 |  |
